Laboratory results reported in article PMC5218480 (PLoS ONE, 2017).

System: MV-4-11 cells
Experiment: Gene expression microarray analysis (Affymetrix PrimeView) and GSEA
Format: cell-based, human
Parameters: RFU PODN (11730768_x_at) / Fold change /veh PODN (11730768_x_at) / RFU LINC00158 (11744669_a_at) / Fold change /veh LINC00158 (11744669_a_at) / RFU DUSP10 (11751237_a_at) / Fold change /veh DUSP10 (11751237_a_at) / RFU ID3 (11757404_x_at) / Fold change /veh ID3 (11757404_x_at) / RFU PLEKHG5 (11737974_s_at) / Fold change /veh PLEKHG5 (11737974_s_at) / RFU LRRC4B (11730491_at) / Fold change /veh LRRC4B (11730491_at) / RFU GIMAP4 (11747438_a_at) / Fold change /veh GIMAP4 (11747438_a_at) / RFU KRT8 (11758183_x_at) / Fold change /veh KRT8 (11758183_x_at) / RFU CNN1 (11734310_a_at) / Fold change /veh CNN1 (11734310_a_at) / RFU VPS37D (11726825_at) / Fold change /veh VPS37D (11726825_at) / RFU C10orf10 (11716522_x_at) / Fold change /veh C10orf10 (11716522_x_at) / RFU KIR2DL2 /// KIR2DL4 /// KIR2DL5A /// KIR2DL5B /// KIR2DS1 /// KIR2DS2 /// KIR2DS3 /// KIR2DS4 /// KIR3DL3 /// KIR3DL3 /// KIR3DS1 (11738374_at) / Fold change /veh KIR2DL2 /// KIR2DL4 /// KIR2DL5A /// KIR2DL5B /// KIR2DS1 /// KIR2DS2 /// KIR2DS3 /// KIR2DS4 /// KIR3DL3 /// KIR3DL3 /// KIR3DS1 (11738374_at) / RFU C1QL1 (11718748_at) / Fold change /veh C1QL1 (11718748_at) / RFU TMPRSS4 (11747572_a_at) / Fold change /veh TMPRSS4 (11747572_a_at) / RFU HAMP (11756126_x_at) / Fold change /veh HAMP (11756126_x_at) / RFU RNFT2 (11725882_a_at) / Fold change /veh RNFT2 (11725882_a_at) / RFU NR4A2 (11747474_a_at) / Fold change /veh NR4A2 (11747474_a_at) / RFU ABCC12 (11746883_a_at) / Fold change /veh ABCC12 (11746883_a_at) / RFU TMEM136 (11760407_x_at) / Fold change /veh TMEM136 (11760407_x_at) / RFU CLDN22 /// WWC2 (11732394_at) / Fold change /veh CLDN22 /// WWC2 (11732394_at) / RFU HLA-DPB1 (11760878_x_at) / Fold change /veh HLA-DPB1 (11760878_x_at) / RFU SPINT1 (11716480_a_at) / Fold change /veh SPINT1 (11716480_a_at) / RFU GAP43 (11754022_s_at) / Fold change /veh GAP43 (11754022_s_at) / RFU A4GNT (11735810_at) / Fold change /veh A4GNT (11735810_at) / RFU PRB3 (11715151_x_at) / Fold change /veh PRB3 (11715151_x_at) / RFU TUBB4B (11761932_at) / Fold change /veh TUBB4B (11761932_at) / RFU CAPN14 (11732068_a_at) / Fold change /veh CAPN14 (11732068_a_at) / RFU TMCC2 (11721928_a_at) / Fold change /veh TMCC2 (11721928_a_at) / RFU IRGQ (11745062_a_at) / Fold change /veh IRGQ (11745062_a_at) / RFU FAM174B (11720279_a_at) / Fold change /veh FAM174B (11720279_a_at) / RFU TMPRSS4 (11748680_a_at) / Fold change /veh TMPRSS4 (11748680_a_at) / RFU FAM212B (11763350_a_at) / Fold change /veh FAM212B (11763350_a_at) / RFU PLEKHG5 (11743358_a_at) / Fold change /veh PLEKHG5 (11743358_a_at) / RFU ZSCAN30 (11745921_a_at) / Fold change /veh ZSCAN30 (11745921_a_at) / RFU CMKLR1 (11741424_a_at) / Fold change /veh CMKLR1 (11741424_a_at) / RFU LOC101060620 /// MAPK8IP1 (11723275_at) / Fold change /veh LOC101060620 /// MAPK8IP1 (11723275_at) / RFU SPTSSB (11747773_x_at) / Fold change /veh SPTSSB (11747773_x_at) / RFU PRSS12 (11739890_at) / Fold change /veh PRSS12 (11739890_at) / RFU BIN1 (11741810_x_at) / Fold change /veh BIN1 (11741810_x_at) / RFU WNT11 (11732464_a_at) / Fold change /veh WNT11 (11732464_a_at) / RFU C10orf10 (11716521_a_at) / Fold change /veh C10orf10 (11716521_a_at) / RFU C5orf56 (11738089_at) / Fold change /veh C5orf56 (11738089_at) / RFU CYB561 (11721691_x_at) / Fold change /veh CYB561 (11721691_x_at) / RFU ANKRD19P (11752326_a_at) / Fold change /veh ANKRD19P (11752326_a_at) / RFU OR2T12 /// OR2T33 /// OR2T8 (11738714_s_at) / Fold change /veh OR2T12 /// OR2T33 /// OR2T8 (11738714_s_at) / RFU VCAN (11748164_a_at) / Fold change /veh VCAN (11748164_a_at) / RFU JSRP1 (11732532_at) / Fold change /veh JSRP1 (11732532_at) / RFU KRTAP10-11 (11738290_x_at) / Fold change /veh KRTAP10-11 (11738290_x_at) / RFU MYO3A (11730013_a_at) / Fold change /veh MYO3A (11730013_a_at) / RFU EBF3 (11725865_a_at) / Fold change /veh EBF3 (11725865_a_at) / RFU CAMK2N1 (11719241_x_at) / Fold change /veh CAMK2N1 (11719241_x_at) / RFU C5orf56 (11738088_a_at) / Fold change /veh C5orf56 (11738088_a_at) / RFU OLFML3 (11715873_a_at) / Fold change /veh OLFML3 (11715873_a_at) / RFU LOC100653217 /// NTM (11731650_a_at) / Fold change /veh LOC100653217 /// NTM (11731650_a_at) / RFU MAPK11 (11762145_a_at) / Fold change /veh MAPK11 (11762145_a_at) / RFU FIZ1 (11724087_x_at) / Fold change /veh FIZ1 (11724087_x_at) / RFU OASL (11726364_x_at) / Fold change /veh OASL (11726364_x_at) / RFU SOX15 (11748057_x_at) / Fold change /veh SOX15 (11748057_x_at) / RFU CD79A (11719716_a_at) / Fold change /veh CD79A (11719716_a_at) / RFU HIST1H1D (11736915_at) / Fold change /veh HIST1H1D (11736915_at) / RFU CASKIN2 (11723855_a_at) / Fold change /veh CASKIN2 (11723855_a_at) / RFU LOC730098 (11760151_x_at) / Fold change /veh LOC730098 (11760151_x_at) / RFU OR4N2 (11742367_at) / Fold change /veh OR4N2 (11742367_at) / RFU PRRT2 (11749266_a_at) / Fold change /veh PRRT2 (11749266_a_at) / RFU SNX32 (11753110_a_at) / Fold change /veh SNX32 (11753110_a_at) / RFU CDHR5 (11726645_a_at) / Fold change /veh CDHR5 (11726645_a_at) / RFU RCAN1 (11760418_a_at) / Fold change /veh RCAN1 (11760418_a_at) / RFU FAM167A (11723789_a_at) / Fold change /veh FAM167A (11723789_a_at) / RFU FAM26E (11764081_at) / Fold change /veh FAM26E (11764081_at) / RFU ISYNA1 (11749810_s_at) / Fold change /veh ISYNA1 (11749810_s_at) / RFU ACY1 (11761880_at) / Fold change /veh ACY1 (11761880_at) / RFU 11764098_at / Fold change /veh 11764098_at / RFU SAMD14 (11745864_x_at) / Fold change /veh SAMD14 (11745864_x_at) / RFU NPB (11741838_a_at) / Fold change /veh NPB (11741838_a_at) / RFU TMPRSS6 (11731388_a_at) / Fold change /veh TMPRSS6 (11731388_a_at) / RFU KRTAP10-2 (11738614_at) / Fold change /veh KRTAP10-2 (11738614_at) / RFU ARHGAP8 /// PRR5-ARHGAP8 (11727945_x_at) / Fold change /veh ARHGAP8 /// PRR5-ARHGAP8 (11727945_x_at) / RFU KRTAP5-7 /// NADSYN1 (11734609_at) / Fold change /veh KRTAP5-7 /// NADSYN1 (11734609_at) / RFU RASL12 (11751679_a_at) / Fold change /veh RASL12 (11751679_a_at) / RFU CDKN2B (11736163_a_at) / Fold change /veh CDKN2B (11736163_a_at) / RFU PRF1 (11729649_at) / Fold change /veh PRF1 (11729649_at) / RFU, ZNF638 /// ZNF638-IT1 / Fold change vs veh, ZNF638 /// ZNF638-IT1 / RFU, PANK3 / Fold change vs veh, PANK3 / RFU, SH3YL1 / Fold change vs veh, SH3YL1 / RFU, ZEB2 / Fold change vs veh, ZEB2 / RFU, NRIP1 / Fold change vs veh, NRIP1 / RFU, PTTG1IP / Fold change vs veh, PTTG1IP / RFU, CAPN2 / Fold change vs veh, CAPN2 / RFU, MED14 / Fold change vs veh, MED14 / RFU, SNORA58 / Fold change vs veh, SNORA58 / RFU, C1orf63 / Fold change vs veh, C1orf63 / RFU, LRRFIP1 / Fold change vs veh, LRRFIP1 / RFU, NDUFAF7 / Fold change vs veh, NDUFAF7 / RFU, SLC12A2 / Fold change vs veh, SLC12A2 / RFU, IBTK / Fold change vs veh, IBTK / RFU, ESF1 / Fold change vs veh, ESF1 / Fold change vs veh, TMEM50B / RFU, TAOK1 / Fold change vs veh, TAOK1 / RFU, ACBD3 / Fold change vs veh, ACBD3 / RFU, TMA16 / Fold change vs veh, TMA16 / RFU, RWDD3 / Fold change vs veh, RWDD3 / RFU, BCAT1 / Fold change vs veh, BCAT1 / RFU, EDEM3 / Fold change vs veh, EDEM3 / RFU, TMEM33 / Fold change vs veh, TMEM33 / RFU, WDR75 / Fold change vs veh, WDR75 / RFU, AHCTF1 / Fold change vs veh, AHCTF1 / RFU, TFRC / Fold change vs veh, TFRC / RFU, ZDHHC17 / Fold change vs veh, ZDHHC17 / RFU, NOM1 / Fold change vs veh, NOM1 / RFU, ARL8B / Fold change vs veh, ARL8B / RFU, ZBTB11 / Fold change vs veh, ZBTB11 / RFU, TAMM41 / Fold change vs veh, TAMM41 / RFU, KIAA1704 /// LOC100996395 / Fold change vs veh, KIAA1704 /// LOC100996395 / RFU, ING1 / Fold change vs veh, ING1 / RFU, TRMT61B / Fold change vs veh, TRMT61B / RFU, FUBP3 / Fold change vs veh, FUBP3 / RFU, TP53 / Fold change vs veh, TP53 / RFU, TNKS2 / Fold change vs veh, TNKS2 / RFU, ZFP14 / Fold change vs veh, ZFP14 / RFU, ACTR2 / Fold change vs veh, ACTR2 / RFU, PPP3R1 / Fold change vs veh, PPP3R1 / RFU, PIK3R1 / Fold change vs veh, PIK3R1 / RFU, HNRNPA1 / Fold change vs veh, HNRNPA1 / RFU, RNF170 / Fold change vs veh, RNF170 / RFU, ZNF28 / Fold change vs veh, ZNF28 / RFU, RNGTT / Fold change vs veh, RNGTT / RFU, OGT / Fold change vs veh, OGT / RFU, BRD1 / Fold change vs veh, BRD1 / RFU, MARS / Fold change vs veh, MARS / RFU, ZNF655 / Fold change vs veh, ZNF655 / RFU, FAHD1 / Fold change vs veh, FAHD1 / RFU, BDP1 / Fold change vs veh, BDP1 / RFU, LRRCC1 / Fold change vs veh, LRRCC1 / RFU, ARID1A / Fold change vs veh, ARID1A / RFU, ZNF146 / Fold change vs veh, ZNF146 / RFU, ZNF330 / Fold change vs veh, ZNF330 / RFU, GPN3 / Fold change vs veh, GPN3 / RFU, C9orf123 / Fold change vs veh, C9orf123 / RFU, N4BP2L2 / Fold change vs veh, N4BP2L2 / RFU, ARFIP1 / Fold change vs veh, ARFIP1 / RFU, FAM179B / Fold change vs veh, FAM179B / RFU, BCL10 / Fold change vs veh, BCL10 / RFU, UHRF1BP1L / Fold change vs veh, UHRF1BP1L / RFU, BET1 / Fold change vs veh, BET1 / RFU, CNOT2 / Fold change vs veh, CNOT2 / RFU, ZNF268 / Fold change vs veh, ZNF268 / Fold change vs veh, ZNF507 / RFU, DGCR2 / Fold change vs veh, DGCR2 / RFU, WDSUB1 / Fold change vs veh, WDSUB1 / Fold change vs veh, HSP90B1 /// MIR3652 / RFU, ADSS / Fold change vs veh, ADSS / RFU, GK / Fold change vs veh, GK / RFU, ZNF148 / Fold change vs veh, ZNF148 / RFU, TAF9 / Fold change vs veh, TAF9 / RFU, SLC1A5 / Fold change vs veh, SLC1A5 / RFU, SLMO2 / Fold change vs veh, SLMO2 / RFU, ABCC4 / Fold change vs veh, ABCC4 / RFU, LOC101060439 /// RAP1B / Fold change vs veh, LOC101060439 /// RAP1B / RFU, RFX7 / Fold change vs veh, RFX7 / RFU, GTPBP10 / Fold change vs veh, GTPBP10 / RFU, CNEP1R1 / Fold change vs veh, CNEP1R1 / RFU, BIVM-ERCC5 /// ERCC5 / Fold change vs veh, BIVM-ERCC5 /// ERCC5 / RFU, ILF3 / Fold change vs veh, ILF3 / RFU 11762660_at / Fold change /veh 11762660_at / RFU VCAN (11757783_s_at) / Fold change /veh VCAN (11757783_s_at) / RFU DDX43 (11728927_at) / Fold change /veh DDX43 (11728927_at) / RFU KRT8 (11758188_x_at) / Fold change /veh KRT8 (11758188_x_at) / RFU NKD1 (11759106_at) / Fold change /veh NKD1 (11759106_at) / RFU SRD5A1 (11742802_a_at) / Fold change /veh SRD5A1 (11742802_a_at) / RFU TPSAB1 /// TPSB2 (11721975_s_at) / Fold change /veh TPSAB1 /// TPSB2 (11721975_s_at) / RFU GSTM3 (11746129_a_at) / Fold change /veh GSTM3 (11746129_a_at) / RFU IL23R (11737362_x_at) / Fold change /veh IL23R (11737362_x_at) / RFU TMEM51 (11727254_a_at) / Fold change /veh TMEM51 (11727254_a_at) / RFU PIWIL2 (11732686_x_at) / Fold change /veh PIWIL2 (11732686_x_at) / RFU ORM1 (11744905_x_at) / Fold change /veh ORM1 (11744905_x_at) / RFU CCDC152 (11743942_at) / Fold change /veh CCDC152 (11743942_at) / RFU ECM1 (11717891_a_at) / Fold change /veh ECM1 (11717891_a_at) / RFU IL23R (11748794_a_at) / Fold change /veh IL23R (11748794_a_at) / RFU TNFAIP8L3 (11732012_x_at) / Fold change /veh TNFAIP8L3 (11732012_x_at) / RFU MBOAT4 (11741988_at) / Fold change /veh MBOAT4 (11741988_at) / RFU 11764193_at / Fold change /veh 11764193_at / RFU TMEM53 (11763286_at) / Fold change /veh TMEM53 (11763286_at) / RFU MAGEB2 (11727129_at) / Fold change /veh MAGEB2 (11727129_at) / RFU TMEM200A (11744735_a_at) / Fold change /veh TMEM200A (11744735_a_at) / RFU CCDC152 (11751479_a_at) / Fold change /veh CCDC152 (11751479_a_at) / RFU FAM211A (11726209_a_at) / Fold change /veh FAM211A (11726209_a_at) / RFU RGS16 (11746705_a_at) / Fold change /veh RGS16 (11746705_a_at) / RFU VCAN (11755009_s_at) / Fold change /veh VCAN (11755009_s_at) / RFU RHOB (11743442_s_at) / Fold change /veh RHOB (11743442_s_at) / RFU RGS16 (11720943_a_at) / Fold change /veh RGS16 (11720943_a_at) / RFU RGS16 (11720944_at) / Fold change /veh RGS16 (11720944_at) / RFU, VPS4B / Fold change vs veh, VPS4B / RFU, CREB1 / Fold change vs veh, CREB1 / RFU, DNAJC13 / Fold change vs veh, DNAJC13 / RFU, GNAQ / Fold change vs veh, GNAQ / RFU, CDK5R1 / Fold change vs veh, CDK5R1 / RFU, ZRANB3 / Fold change vs veh, ZRANB3 / RFU, CUL4A / Fold change vs veh, CUL4A / RFU, CCNY / Fold change vs veh, CCNY / RFU, UFL1 / Fold change vs veh, UFL1 / RFU, COG3 / Fold change vs veh, COG3 / RFU, DIAPH2 / Fold change vs veh, DIAPH2 / RFU, SKA2 / Fold change vs veh, SKA2 / RFU, AFF3 / Fold change vs veh, AFF3 / RFU, LMF1 / Fold change vs veh, LMF1 / RFU, IPO11 / Fold change vs veh, IPO11 / RFU, DFFB / Fold change vs veh, DFFB / RFU, FOXP1 / Fold change vs veh, FOXP1 / RFU, CARD8 / Fold change vs veh, CARD8 / RFU, STRN3 / Fold change vs veh, STRN3 / RFU, ADK / Fold change vs veh, ADK / RFU, RASSF2 / Fold change vs veh, RASSF2 / RFU, WIPF1 / Fold change vs veh, WIPF1 / RFU, LARP1B / Fold change vs veh, LARP1B / RFU, RASA1 / Fold change vs veh, RASA1 / RFU, RB1 / Fold change vs veh, RB1 / RFU, PPFIA1 / Fold change vs veh, PPFIA1 / RFU, MAT2A / Fold change vs veh, MAT2A / RFU, CCT5 / Fold change vs veh, CCT5 / RFU, WDR92 / Fold change vs veh, WDR92 / RFU, CUX1 / Fold change vs veh, CUX1 / RFU, TTC7A / Fold change vs veh, TTC7A / RFU, TMEM135 / Fold change vs veh, TMEM135 / RFU, DEPTOR / Fold change vs veh, DEPTOR / RFU, CPM / Fold change vs veh, CPM / RFU, DNAJB6 / Fold change vs veh, DNAJB6 / RFU, CACNA2D3 / Fold change vs veh, CACNA2D3 / RFU, DTX4 / Fold change vs veh, DTX4 / RFU, TFCP2 / Fold change vs veh, TFCP2 / RFU, GMCL1 /// GMCL1P1 / Fold change vs veh, GMCL1 /// GMCL1P1 / RFU, AEBP2 / Fold change vs veh, AEBP2 / RFU, SNHG1 /// SNORD22 /// SNORD25 /// SNORD26 /// SNORD27 /// SNORD28 /// SNORD29 /// SNORD31 / Fold change vs veh, SNHG1 /// SNORD22 /// SNORD25 /// SNORD26 /// SNORD27 /// SNORD28 /// SNORD29 /// SNORD31 / Fold change (Aza/veh), C12orf56 (ProbeSet 11735607_a_at) / Fold change (ACY-1035/veh), C12orf56 (ProbeSet 11735607_a_at) / Fold change (Aza/veh), FGFR1OP (ProbeSet 11751329_s_at) / Fold change (ACY-1035/veh), FGFR1OP (ProbeSet 11751329_s_at) / Fold change (Aza/veh), VPS36 (ProbeSet 11739960_a_at) / Fold change (ACY-1035/veh), VPS36 (ProbeSet 11739960_a_at) / RFU SYPL1 (11715823_x_at) / Fold change /veh SYPL1 (11715823_x_at) / RFU IGFBP7 (11715501_s_at) / Fold change /veh IGFBP7 (11715501_s_at) / RFU REEP3 (11722064_at) / Fold change /veh REEP3 (11722064_at) / RFU IGLL1 (11728026_x_at) / Fold change /veh IGLL1 (11728026_x_at): dose or concentration left out as unconfirmed
Details: MV-4-11 cells, 48 hours

## Nc1ccc(-c2cccs2)cc1NC(=O)c1ccc2c(c1)cc(C1CC1)n2CCN1CCOCC1 [ACY-1035]
  Fold change /veh NR4A2 (11747474_a_at): 0.99
